According to patent publication EP4725954A1, “MODIFIED PEPTIDES SUCH AS POLYPEPTIDES LA-19 AND TM-19 HAVING ANTI-AGING AND REPAIRING EFFECTS AND USE THEREOF” (Anhui Dexin Huahai Biological Technology Co. Ltd., priority 2023, dated 2025):
Where two headings read alike, the source gives them in different places. Where no end group is shown, it is not given here.

Experiments:
[1] = test system: Human keratinocytes (HaCaT cells); assay: Cytotoxicity test of the polypeptides on keratinocytes (CCK-8); conditions: in words; for effect on cell growth: compared to the blank group
Procedure: (§3) Human keratinocytes (HaCaT cells, Nanjing Saihongrui Biotechnology Co., Ltd.).
(§4) Cell culture conditions: constant temperature and humidity incubator (37°C, 95% air, 5% carbon dioxide), 90% dulbecco's modified eagle medium (DMEM) high-glucose medium + 10% fetal bovine serum (Nanjing BioChannel Biotechnology Co., Ltd).
(§5) A cell culture flask was taken out from the cell incubator, observed under a microscope, and the cells were in the logarithmic growth phase. In a clean bench, the medium was discarded, the cells were rinsed with 2 mL of phosphate buffer saline (PBS) and discarded; after repeating the above process once, 2 mL of 0.25% trypsin was added for digestion. The digestion was terminated by adding a corresponding volume of serum-containing medium, and the cells were transferred to a 15 mL conical centrifuge tube and centrifuged at 1000 rpm for 5 minutes. The serum-containing medium was resuspended in a resuspension volume of 2 mL. The cells were counted and calculated. The cells were then diluted, and plated; then the diluted cell suspension was taken, then the 96-well plate was paved with 10^4 cells/well, and the edge wells were filled with PBS. The well plate was taken out from the cell incubator, the medium was discarded, the well-plate of the administration group was added with the corresponding drugs and placed into the cell incubator for incubation for 48 hours. On the day of detection, the 96-well plate was taken out from the cell incubator, and added with 10 µL of a CCK-8 reagent per well in the clean bench, and then quickly placed into the cell incubator for 60 minutes, and the absorbance was measured with a microplate reader and the absorbance was measured at OD 450 nm. The average reading of the blank group was taken, and the numerical value of each group was divided by the average value to obtain the change in cell viability. Results are expressed as Mean ± SEM, compared with the blank group, *P<0.05 denotes a significant difference, **P<0.01, ***P<0.001, and ****P<0.0001 denote very significant differences.

IL-6 = assay: Anti-inflammatory activity test on keratinocytes: IL-6 ELISA; assay type: cell-based, Human; conditions: 10 µM; UVB 30 mJ/cm^2, HaCaT supernatant; blank 10.619, model 18.622; Mean ± SEM
Procedure: (§1) Interleukin-6 ELISA assay kit (Shanghai Beyotime Biotechnology Co., Ltd.); tumor necrosis factor α ELISA assay kit (Shanghai Beyotime Biotechnology Co., Ltd.); 6-well plate (Wuxi NEST Biotechnology Co., Ltd.); and palmitoyl tetrapeptide-7 (Shenzhen Jianyuan Pharmaceutical Technology Co., Ltd.). Other experimental materials and instruments are the same as those in Examples 1, 2, and 3.
(§2) The cells were counted and calculated. […] After 24 hours of incubation, cell UV modeling was performed. The UVB lamp tube was turned on, and the radiation intensity was measured with a UV irradiance meter. When the radiation intensity reached 500 µW/cm^2, the uncovered 6-well plate was placed and irradiated for 1 minute such that the radiation dose was up to 30 mJ/cm^2. At the end of the radiation, the 6-well plate was covered and placed into the cell incubator.

TNF-α = assay: Anti-inflammatory activity test on keratinocytes: TNF-α ELISA; assay type: cell-based, Human; conditions: 10 µM; UVB 30 mJ/cm^2, HaCaT supernatant; blank 2.890, model 10.812; Mean ± SEM
Procedure: as §1, §2

[2] = test system: Human keratinocytes (HaCaT cells)
Procedure: as §3, §4, §5

Substance	effect on cell growth [1]	other results
LQTSLRALRQIGGGTKAAA [P8]	do not significantly inhibit cell growth	–
palmitoyl tetrapeptide-7	–	IL-6 activity (pg/mgprot) (IL-6): 13.901±1.356 pg/mgprot; TNF-α activity (pg/mgprot) (TNF-α): 6.832±2.461 pg/mgprot
Ac-LQSSLRALRQMGGGTKAAA [P6]	do not significantly inhibit cell growth	–
LQSSLRALRQMGGGTKAAA-NH2 [P7]	do not significantly inhibit cell growth	–
TKAAAGGGLQTSLRALRQI [P10]	do not significantly inhibit cell growth	–
GGGLQSSLRALRQM [P4]	do not significantly inhibit cell growth	–
TKAAA [Acein, reference compound]	do not significantly inhibit cell growth	–
LQSSLRALRQMGGGTKAAA [LA-19]	do not significantly inhibit cell growth	toxicity to keratinocytes [1]: no obvious toxicity to keratinocytes
LQSSLRALRQMGGG [P3]	do not significantly inhibit cell growth	–
Ac-LQTSLRALRQIGGGTKAAA [P9]	do not significantly inhibit cell growth	–
TKAAAGGGLQSSLRALRQM [TM-19]	slightly inhibit cell growth at low concentrations but promote cell proliferation at high concentrations	–
LQSSLRALRQM [P5]	–	effect on cell growth [2]: do not significantly inhibit cell growth
